Experimental data reported in patent publication US9708557B2, “Process for the treatment of liquefied hydrocarbon gas using 2-amino-2(hydroxymethyl) propane-1,3-diol compounds” (Dow Global Technologies LLC, priority 2012, dated 2017).

What was measured:
[1] = Solubility of tested amine in heptane phase (gas chromatography, toluene internal standard); details: heptane 10 g, toluene 0.1 g, amine 2.5 g mixed at 20° C. for 1 hour, decanted 15 minutes; average of three injections
Procedure: A solution of heptane (10 g), toluene (0.1 g) and the tested amine (2.5 g) are mixed at 20° C. for 1 hour. The mixture is decanted for 15 minutes and the neat heptane phase is analyzed by gas chromatography using toluene as internal standard. The injection is repeated three times and peak areas of tested amine are averaged.

[2] = pKa by automated Mettler Toledo titration; details: 50 weight % aqueous amine solution

Structure (SMILES) | area counts (GC peak area of tested amine in neat heptane phase) [1] | pKa [2]
NC(CO)(CO)CO [TA, 2-amino-2-(hydroxymethyl)propane-1,3-diol] | 0 area counts | –
CN(C)C(CO)(CO)CO [DMTA, 2-dimethylamino-2-(hydroxymethyl)propane-1,3-diol] | 50 area counts | 9.1
